Drawing on US20040152740A1, “Arylglycine derivatives for use as glycine transport inhibitors” (NPS Allelix Corporation, priority 2002, published 2004), this text covers IC50 for 13 compounds.

In general, IC50 refers to the midpoint of a concentration-inhibition curve.

The target in this test is T1, human GlyT-2 (Homo sapiens, UniProt Q9Y345).
T1 construct: expressed in transfected cells; elsewhere 'preferably QT-6 cells derived from quail fibroblasts'
T1 sequence (Q9Y345 1-797): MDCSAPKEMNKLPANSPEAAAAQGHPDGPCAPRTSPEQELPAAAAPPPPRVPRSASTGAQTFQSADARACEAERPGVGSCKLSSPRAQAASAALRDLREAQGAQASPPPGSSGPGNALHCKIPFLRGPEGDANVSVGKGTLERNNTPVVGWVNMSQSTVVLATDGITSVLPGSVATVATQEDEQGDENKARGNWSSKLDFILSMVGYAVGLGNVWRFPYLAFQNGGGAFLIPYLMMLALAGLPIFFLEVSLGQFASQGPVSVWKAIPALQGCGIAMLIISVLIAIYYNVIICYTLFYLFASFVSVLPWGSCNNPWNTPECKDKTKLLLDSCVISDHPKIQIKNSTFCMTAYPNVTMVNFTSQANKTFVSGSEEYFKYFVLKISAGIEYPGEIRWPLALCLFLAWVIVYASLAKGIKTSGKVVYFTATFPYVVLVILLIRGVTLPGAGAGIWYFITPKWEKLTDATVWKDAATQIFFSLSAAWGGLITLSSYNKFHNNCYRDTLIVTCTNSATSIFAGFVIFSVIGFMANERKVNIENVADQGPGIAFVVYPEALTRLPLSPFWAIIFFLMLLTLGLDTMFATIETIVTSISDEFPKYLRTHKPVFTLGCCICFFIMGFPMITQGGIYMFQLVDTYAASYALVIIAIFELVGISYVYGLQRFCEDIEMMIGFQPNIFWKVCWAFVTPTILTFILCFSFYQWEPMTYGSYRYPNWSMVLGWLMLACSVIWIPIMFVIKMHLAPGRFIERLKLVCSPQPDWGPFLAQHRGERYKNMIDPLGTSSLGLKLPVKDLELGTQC
Nature of the test: Assay of transport via GlyT-2 transporters: [3H]glycine uptake by stably transfected cultured cells. It counts as cell-based. Conditions: cells stably transfected with human GlyT-2; 50 nM [3H]glycine; ten minutes at 37° C.; read-out: GlyT1 uptake IC50. The procedure:
This example illustrates a method for the measurement of glycine uptake by transfected cultured cells.
Cells stably transfected with human GlyT-2 (the homolog of the rat GlyT-2 described by Liu et al., J. Biological Chemistry, 268, 1993:22802-22808) were washed twice with HEPES buffered saline (HBS). The cells were then incubated ten minutes at 37° C., after which a solution containing 50 nM [^3H]glycine (17.5 Ci/mmol) and either (a) no potential competitor, (b) […] or (c) a concentration of a candidate drug. A range of concentrations of the candidate drug was used to generate data for calculating the concentration resulting in 50% of the effect (e.g., the IC50's which are the concentration of drug inhibiting glycine uptake by 50%). The cells were then incubated another ten minutes at 37° C., after which the cells were aspirated and washed three times with ice-cold HBS. The cells were solubilized in scintillant, shaken for thirty minutes, and the radioactivity in the cells was counted using a scintillation counter. Data were compared between the same cells contacted and not contacted by the candidate agent.
As for `COc1ccc(NC(=S)NC(C(=O)Nc2c(C)cccc2C)c2ccccc2)c([N+](=O)[O-])c1` (stereo not shown) [Example E33.6, N-(2,6-dimethylphenyl)-2-[3-(4-methoxy-2-nitrophenyl)-thioureido]-2-phenyl acetamide], the IC50 is 34.4 nM.
`Cc1cccc(C)c1NC(=O)C(NC(=S)Nc1ccc(S(=O)(=O)N(C)C)cc1[N+](=O)[O-])c1ccccc1` (stereo not shown) [Example E33.5]: the IC50 was 14.2 nM.
In the case of `COc1ccc(NC(=S)NC(C(=O)Nc2c(C)cccc2Cl)c2ccccc2)c([N+](=O)[O-])c1` (stereo not shown) [Example E29.1, N-(2-chloro-6-methylphenyl)-2-[3-(4-methoxy-2-nitrophenyl)-thioureido]-2-phenyl acetamide], the IC50 is 22.8 nM.
Under `COc1ccc(NC(=S)N[C@H](CC(C)C)C(=O)Nc2c(C)cccc2C)c([N+](=O)[O-])c1` [E51.1*] stands 90.8 nM.
Under `COc1ccc(NC(=S)NC(C(=O)Nc2ccccc2C)c2ccccc2)c([N+](=O)[O-])c1` (stereo not shown) [Example E4.4, N-(2-methylphenyl)-2-[3-(2-nitro-4-methoxyphenyl)-thioureido]-2-phenyl acetamide] stands 83.8 nM; under `COc1ccc(NC(=S)NC(C(=O)Nc2c(C)cccc2C(C)C)c2ccccc2)c([N+](=O)[O-])c1` (stereo not shown) [Example E28.1, N-(2-isopropyl-6-methylphenyl)-2-[3-(4-methoxy-2-nitrophenyl)-thioureido]-2-phenyl acetamide], 52.2 nM; under `Cc1cccc(C)c1NC(=O)C(NC(=S)Nc1ccc(OCCN(C)C)cc1C(F)(F)F)c1ccccc1` (stereo not shown) [Example E33.8, N-(2.6-dimethylphenyl)-2-[3-(4-N,N-dimethylaminoethoxy-2-trifluoromethylphenyl)-thioureido]-2-phenyl acetamide], 115 nM.
With `CCOc1ccc(NC(=S)NC(C(=O)Nc2ccccc2C)c2ccccc2)c([N+](=O)[O-])c1` (stereo not shown) [Example E4.3, N-(2-methylphenyl)-2-[3-(4-ethoxy-2-nitrophenyl)-thioureido]-2-phenyl acetamide] the figure was 172 nM; with `Cc1cccc(C)c1NC(=O)C(NC(=S)Nc1ccccc1S(=O)(=O)N(C)C)c1ccccc1` (stereo not shown) [Example E33.2, N-(2,6-dimethylphenyl)-2-[3-(2-N,N-dimethylsulphonamidophenyl)-thioureido]-2-phenyl acetamide], 48 nM.
Regarding `CCOc1ccc(NC(=S)NC(C(=O)Nc2c(C)cccc2C)c2ccccc2)c([N+](=O)[O-])c1` (stereo not shown) [Example E33.1, N-(2,6-dimethylphenyl)-2-[3-(4-ethoxy-2-nitrophenyl)-thioureido]-2-phenyl acetamide], the half-inhibitory concentration (IC50) worked out at 49.2 nM.
With `COc1ccc(NC(=S)NC(CC(C)C)C(=O)Nc2c(C)cccc2C)c([N+](=O)[O-])c1` (stereo not shown) [Example E51.3, N-(2.6-dimethylphenyl)-2-[3-(4-methoxy-2-nitrophenyl)-thioureido]-4-methylpentanamide] the figure was 112 nM; with `Cc1cccc(C)c1NC(=O)C(NC(=S)Nc1ccc(OCCN(C)C)cc1[N+](=O)[O-])c1ccccc1` (stereo not shown) [Example E33.4, N-(2.6-dimethylphenyl)-2-[3-(4-(2-N,N-dimethylamino)ethoxy-2-nitrophenyl)-thioureido]-2-phenyl acetamide], 182 nM.
Under `Cc1ccccc1NC(=O)[C@H](NC(=S)Nc1ccccc1[N+](=O)[O-])c1ccccc1` [Example E4.2] stands 77.4 nM.
